Test results as given in patent publication US10653672B2, “Myogenesis promotor, muscle atrophy inhibitor, medical composition and TAZ activator” (National University Corporation Tokyo Medical and Dental …, priority 2014, dated 2020).
“And” between values parts separate entries of the source, which are not always exact repeats. Equal entries are not always repeated.

Assays:
[1] = tested on: C2C12 cells; experiment: Anti-MHC immunostaining of differentiating C2C12 cells; format: cell-based, mouse
Experimental: (2) To a culture medium in which C2C12 cells were grown to confluence under growth condition, IBS008738 or DMSO was added. The C2C12 cells were fixed immediately after the addition of IBS008738 or DMSO, and at 24 hours, 48 hours or 72 hours after the addition of IBS008738 or DMSO under differentiation condition. The fixed C2C12 cells were immunostained with anti-MHC antibody. The cell nuclei were visualized with Hoechst 33342.
(3) C2C12 cells were grown under growth condition for 24 hours in a culture medium with IBS008738 or DMSO at a concentration of 10 μM, respectively, and switched to differentiation condition to continue the cultivation. The C2C12 cells were fixed immediately after the completion of cultivation under growth condition, and at 24 hours, 48 hours and 72 hours after the switching to differentiation condition, respectively.
C2C12 cells were passaged in a growth medium (DMEM containing 10% FBS) and differentiated in a differentiation medium (DMEM containing 2% horse serum (Invitrogen)).

[2] = tested on: caveolin 3; experiment: Quantitative real-time PCR, caveolin 3; format: cell-based, mouse; settings: C2C12 cells, 10 μM; for Normarized mRNA abundance, Caveolin3: listed as IBS008738
Experimental: (1) Quantitative real-time PCR was performed with C2C12 cells immediately before the induction of muscle formation (0 h), and after culturing under differentiation condition in a culture medium added with IBS008738 or DMSO at a concentration of 10 μM for 24 hours (24 h) and 72 hours (72 h), respectively. […] The line and error bar indicate the average value and the standard error, **p<0.05, and ns refers to not significant.
Evaluation was also performed under the same condition on M-cadherin, calpain 1 and caveolin 3, which are myofusion markers. As a result, there was no increase in the degree of gene transcription in the case with IBS008738.
The quantitative real-time PCR was performed with SYBER Green (Roche) and ABI7500 Realtime PCR system (Applied Biosystems).

[3] = tested on: TEAD reporter; experiment: Luciferase reporter assay, TEAD reporter; format: cell-based; settings: Mus musculus, C2C12, 24 h, C2C12 cells expressing reporter and TAZ WT, differentiation medium 24 hours
Experimental: The effect and its degree on the activity of a reporter, derived from a transcription factor that interacts with TAZ in C2C12 cells, were evaluated. Specifically, C2C12 cells expressing luciferase reporters corresponding to MyoD, TEAD, SMAD and Pax3 and C2C12 cells expressing these luciferase reporters and TAZ were cultured in a culture medium added with IBS008738 or DMSO at a concentration of 10 μM, respectively. […] The line and the error bar indicate the average value and the standard error, *p<0.05, **p<0.01, ns refers to not significant.
Transfection of the luciferase reporters was performed to the C2C12 cells after being plated at 12-well plates (1×10^5 cells/well) and cultured overnight. As the luciferase reporters, pGL3 Myo-184- (MyoD-), 8×GT-IIC-δ51LucII- (TEAD-), 9×CAGA-MLP-(SMAD-), and p(PRS-1/-4)3- (Pax3-) were transfected to the cells alone or with TAZ. These reporter vectors were from Keiji Miyazawa (Yamanashi University), Hiroshi Sasaki (Kumamoto University) and Hiroki Kurihara (The University of Tokyo).
Immediately after the transfection, DMSO or IBS008738 was added at a concentration of 10 μM, respectively. After growing the cells to confluence, the cells were transferred to a differentiation medium with DMSO or IBS008738, and cultured for 24 hours before the luciferase assay.

[4] = tested on: Balb/c ByJ mice; experiment: Recovery of cardiotoxin-induced muscle damage; format: in vivo, mouse; settings: intraperitoneal injection of 100 mM stock on days 2, 4 and 6 after cardiotoxin; day 7
Experimental: Experiments were conducted with mice according to procedures approved by the Institutional Animal Case and Use Committee (see FIG. 9A to 9F). For the experiments, Balb/c ByJ mice (6 weeks, female) were used. The bar in the figures is 50 μm. The line and the error bar indicate the average value and the standard error, *p<0.05, i.e refers to intramuscular injection, and i.p refers to intraperitoneal injection.
(1) Cardiotoxin was diluted to 10 μM with phosphate buffered saline (PBS). The cardiotoxin solution (100 μl) was added with 0.3 μL of DMSO, or 0.3 μL of 10 mM IBS008738 stock solution in DMSO, respectively, and the solution was injected to the anterior tibial muscles on the right and the left, respectively. Three mice were used for one experiment, and the experiment was performed twice. The mice were sacrificed at day 5. […]
(3) Observation of muscle tissues was performed by fixing the anterior tibial muscle with 4% formalin and embedding the same in paraffin or O.C.T. compound, and staining muscle sections of 5 μm with haematoxylin and eosin. Further, Pax 7 was detected with anti-Pax 7 antibody and visualized with 3,3′-diaminobenzidine. […] The number of the Pax7-positive cells and the number of the centrally nucleated muscle fibers were counted at 6 fields at 20-fold magnification. […]

Cc1ccc(-n2cnc(/N=C/N3CCOCC3)c2C(=O)c2ccccc2)cc1 [exemplary compound 1]
cell differentiation compared with DMSO ([1]; 10 μM, 24 hours under growth condition, then differentiation condition up to 72 hours): more developed
cell differentiation and MHC expression compared with DMSO ([1]; added at confluence, fixed at 0, 24, 48 or 72 hours under differentiation condition, anti-MHC antibody): more significant
degree of gene transcription of caveolin 3 ([2]; 24 h and 72 h): no increase
Normarized mRNA abundance, Caveolin3 ([2]; differentiation condition 24 h): 0.14 and 0.13
Normarized mRNA abundance, Caveolin3 ([2]; differentiation condition 72 h): 2.08 and 2.47 and 2.09
fold induction at 10 µM [3]: 8.41
number of the Pax7-positive cells compared with DMSO [4]: greater
number of the centrally nucleated muscle fibers compared with DMSO [4]: greater
